Drawing on patent US9512169B2, “3-substituted estra-1,3,5(10),16-tetraene derivatives, methods for the production thereof, pharmaceutical preparations containing same, and use thereof for the production of medicaments” (BAYER PHARMA AKTIENGESELLSCHAFT, priority 2012, dated 2016), this text covers IC50 for 18 compounds.

“And” between values parts separate entries of the source, which are not always exact repeats. Equal entries are not always repeated.

T1 sequence (P42330 whole entry): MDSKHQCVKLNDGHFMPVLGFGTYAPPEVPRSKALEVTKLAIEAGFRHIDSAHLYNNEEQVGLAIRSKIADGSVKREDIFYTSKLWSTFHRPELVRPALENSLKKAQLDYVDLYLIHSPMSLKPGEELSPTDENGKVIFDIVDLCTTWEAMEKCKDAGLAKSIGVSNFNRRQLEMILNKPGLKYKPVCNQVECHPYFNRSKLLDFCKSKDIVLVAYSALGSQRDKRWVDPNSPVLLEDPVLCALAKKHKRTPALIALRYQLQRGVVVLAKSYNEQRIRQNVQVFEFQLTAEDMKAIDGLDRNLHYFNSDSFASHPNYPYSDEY

One experiment has as its target T1, AKR1C3 (Homo sapiens (Human), UniProt P42330). The experiment is described as follows: AKR1C3 enzyme inhibition assay (Coumberone to Coumberol fluorescence). The class given is biochemical. The note with it: recombinant human AKR1C3, 15 min pre-incubation, 90 min at 22° C.; repeated lines = two experimental determinations. The protocol: The AKR1C3-inhibitory activity of the substances of the present invention was measured in the AKR1C3 assay described in the paragraphs below.
Essentially, the enzyme activity is measured by quantification of the Coumberol from Coumberone (Halim, M., Yee, D. J., and Sames, D., J. AM. CHEM. SOC. 130, 14123-14128 (2008) and Yee, D. J., Balsanek, V., Bauman, D. R., Penning, T. M., and Sames, D., Proc. Natl. Acad. Sci. USA 103, 13304-13309 (2006)). In this test, the increase of the highly fluorescent Coumberol by NADPH- (nicotinamide adenine dinucleotide phosphate)-dependent reduction of the non-fluorescent Coumberone by AKR1C3 can be determined.
The enzyme used was recombinant human AKR1C3 (Aldo-keto reductase family 1 member C3) (GenBank Accession No. NM_003739). This was expressed in E. coli as GST (glutathione S transferase) fusion protein and purified by glutathione Sepharose affinity chromatography. The GST was removed by digestion with thrombin and subsequent size exclusion chromatography (Dufort, I., Rheault, P., Huang, X F., Soucy, P., and Luu-The, V., Endocrinology 140, 568-574 (1999)).
For the assay, 50 nl of a 100-fold concentrated solution of the test substance in DMSO were pipetted into a black low-volume 384-well microtiter plate (Greiner Bio-One, Frickenhausen, Germany), 2.0 μl of a solution of AKR1C3 in assay buffer [50 mM potassium phosphate buffer pH 7, 1 mM DTT, 0.0022% (w/v) Pluronic F-127, 0.01% BSA (w/v) and protease inhibitor cocktail (Complete, EDTA-free Protease Inhibitor Cocktail from Roche)] were added and the mixture was incubated for 15 min to allow pre-binding of the substances to the enzyme prior to the enzyme reaction. The enzyme reaction was then started by addition of 3 μl of a solution of NADPH (16.7 μM→final concentration in 5 μl of assay volume is 10 μM) and Coumberone (0.5 μM→final concentration in 5 μl of assay volume is 0.3 μM) in assay buffer, and the resulting mixture was incubated at 22° C. for the reaction time of 90 min. The concentration of the AKR1C3 was adapted to the respective activity of the enzyme preparation and adjusted such that the assay was carried out in the linear range. Typical concentrations were in the region of 1 nM. The reaction was stopped by addition of 5 μl of a stop solution consisting of the inhibitor EM-1404 [F. Labrie et al. U.S. Pat. No. 6,541,463, 2003] (2 μM→final concentration in […] is 1 μM). The fluorescence of the Coumberole was then measured at 520 nm (excitation at 380 nm) using a suitable measuring instrument (Pherastar from BMG Labtechnologies). The intensity of the fluorescence was used as a measure of the amount of Coumberole formed and thus of the enzyme activity of AKR1C3. The data were normalized (enzyme reaction without inhibitor=0% inhibition; all other assay components, but no enzyme=100% inhibition).
As described, the pharmacological substances claimed were examined for their inhibitory activity on the AKR1C3 enzyme (see Table 1). The compounds claimed show a strong inhibition of AKR1C3 in vitro (IC50 values <200 nM) and in most cases even IC50 values <50 nM.
One may read the IC50 as the point on the concentration scale where inhibition reaches its midpoint. For the compound `CC(Oc1ccc2c(c1)CC[C@@H]1[C@@H]2CC[C@]2(C)C(c3cncc(F)c3)=CC[C@@H]12)C(=O)O` (mixture of isomers) [Example 10, (RS)-2-{[17-(5-Fluoropyridin-3-yl)estra-1,3,5(10),16-tetraen-3-yl]oxy}propanoic acid], the IC50 stood at 0.0027 µM. The same measure, in the same setting: the same measure for `CCC(Oc1ccc2c(c1)CC[C@@H]1[C@@H]2CC[C@]2(C)C(c3cncc(F)c3)=CC[C@@H]12)C(=O)O` (mixture of isomers) [Example 11, (RS)-2-{[17-(5-Fluoropyridin-3-yl)estra-1,3,5(10),16-tetraen-3-yl]oxy}butanoic acid]: 0.0025 µM; for `COCC(Oc1ccc2c(c1)CC[C@@H]1[C@@H]2CC[C@]2(C)C(c3cncc(F)c3)=CC[C@@H]12)C(=O)O` (mixture of isomers) [Example 12, (RS)-2-{[17-(5-Fluoropyridin-3-yl)estra-1,3,5(10),16-tetraen-3-yl]oxy}-3-methoxy-propanoic acid]: 0.004 µM; for `CC(Oc1ccc2c(c1)CC[C@@H]1[C@@H]2CC[C@]2(C)C(c3cccnc3)=CC[C@@H]12)C(=O)O` (mixture of isomers) [Example 13, (RS)-2-{[17-(3-Pyridyl)estra-1,3,5(10),16-tetraen-3-yl]oxy}propanoic acid]: 0.0028 µM. Same read-out and setting: next, `CC(Oc1ccc2c(c1)CC[C@@H]1[C@@H]2CC[C@]2(C)C(c3cncc(F)c3)=CC[C@@H]12)C(N)=O` (mixture of isomers) [Example 14, (RS)-2-{[17-(5-Fluoropyridin-3-yl)estra-1,3,5(10),16-tetraen-3-yl]oxy}propanamide]: 0.02 µM; `C[C@]12CC[C@@H]3c4ccc(OCC(O)CO)cc4CC[C@H]3[C@@H]1CC=C2c1cncc(F)c1` (mixture of isomers) [Example 17, (RS)-3-{[17-(5-Fluoropyridin-3-yl)estra-1,3,5(10),16-tetraen-3-yl]oxy}propan-1,2-diol]: 0.025 µM. Same read-out and setting: the same measure for `C[C@]12CC[C@@H]3c4ccc(OC(C(=O)O)c5ccccc5)cc4CC[C@H]3[C@@H]1CC=C2c1cncc(F)c1` (mixture of isomers) [Example 18, (RS)-{[17-(5-Fluoropyridin-3-yl)estra-1,3,5(10),16-tetraen-3-yl]oxy}(phenyl)acetic acid]: 0.01 µM; for `C[C@]12CC[C@@H]3c4ccc(OCC(=O)O)cc4CC[C@H]3[C@@H]1CC=C2c1cncc(C(F)(F)F)c1` [Example 2, ({17-[5-(Trifluoromethyl)pyridin-3-yl]estra-1,3,5(10),16-tetraen-3-yl}oxy)acetic acid]: 0.033 µM and 0.023 µM. `C[C@]12CC[C@@H]3c4ccc(OCC(=O)O)cc4CC[C@H]3[C@@H]1CC=C2c1cncc(F)c1` [Example 3, {[17-(5-Fluoropyridin-3-yl)estra-1,3,5(10),16-tetraen-3-yl]oxy}acetic acid]: the IC50 was 0.016 µM and 0.0086 µM. In the case of `Cc1ccc(C2=CC[C@H]3[C@@H]4CCc5cc(OCC(=O)O)ccc5[C@H]4CC[C@]23C)cn1` [Example 4, {[17-(6-Methylpyridin-3-yl)estra-1,3,5(10),16-tetraen-3-yl]oxy}acetic acid], the IC50 is 0.136 µM.

Regarding `C[C@]12CC[C@@H]3c4ccc(OCC(=O)O)cc4CC[C@H]3[C@@H]1CC=C2c1cncnc1` [Example 5, {[17-(Pyrimidin-5-yl)estra-1,3,5(10),16-tetraen-3-yl]oxy}acetic acid], the IC50 stood at 0.089 µM.

`C[C@]12CC[C@@H]3c4ccc(OCC(=O)O)cc4CC[C@H]3[C@@H]1CC=C2c1cncc(C(=O)O)c1` [Example 6, 5-[3-(Carboxymethoxy)estra-1,3,5(10),16-tetraen-17-yl]nicotinic acid]: the IC50 came to 0.0092 µM.

Take `Cc1cc(C2=CC[C@H]3[C@@H]4CCc5cc(OCC(=O)O)ccc5[C@H]4CC[C@]23C)cnn1` [Example 7, {[17-(6-Methylpyridazin-4-yl)estra-1,3,5(10),16-tetraen-3-yl]oxy}acetic acid]: the IC50 came to 0.0014 µM. Regarding `CC(C)(COc1ccc2c(c1)CC[C@@H]1[C@@H]2CC[C@]2(C)C(c3cncc(F)c3)=CC[C@@H]12)C(=O)O` [Example 8, 3-{[17-(5-Fluoropyridin-3-yl)estra-1,3,5(10),16-tetraen-3-yl]oxy}-2,2-dimethylpropanoic acid], the half-maximal inhibitory concentration (IC50) was 0.012 µM and 0.011 µM. Turning to `C[C@]12CC[C@@H]3c4ccc(OCCCC(=O)O)cc4CC[C@H]3[C@@H]1CC=C2c1cncc(F)c1` [Example 9, 4-{[17-(5-Fluoropyridin-3-yl)estra-1,3,5(10),16-tetraen-3-yl]oxy}butanoic acid], the IC50 amounted to 0.042 µM. Same read-out and setting: next, `C[C@]12CC[C@@H]3c4ccc(OCCCO)cc4CC[C@H]3[C@@H]1CC=C2c1cncc(F)c1` [Example 15, 3-{[17-(5-Fluoropyridin-3-yl)estra-1,3,5(10),16-tetraen-3-yl]oxy}propan-1-ol]: 0.054 µM; `CC(C)(CO)COc1ccc2c(c1)CC[C@@H]1[C@@H]2CC[C@]2(C)C(c3cncc(F)c3)=CC[C@@H]12` [Example 16, 3-{[17-(5-Fluoropyridin-3-yl)estra-1,3,5(10),16-tetraen-3-yl]oxy}-2,2-dimethylpropan-1-ol]: 0.124 µM. For the compound `CCNC(=O)COc1ccc2c(c1)CC[C@@H]1[C@@H]2CC[C@]2(C)C(c3cncc(C(F)(F)F)c3)=CC[C@@H]12` [Example 19, N-Ethyl-2-({17-[5-(trifluoromethyl)pyridin-3-yl]estra-1,3,5(10),16-tetraen-3-yl}oxy)acetamide], the IC50 came to 0.053 µM.

Another experiment concerns the target T1, AKR1C3. The experiment is described as follows: AKR1C3 inhibition in a cell-based system (HEK293 cells transfected with AKR1C3 expression plasmid, coumberol fluorescence). The note with it: HEK293 cells transfected with AKR1C3, incubation overnight; repeated lines = independent determinations; read-out: Cellular AKR1C3 inhibition IC50. The protocol: The inhibition of AKR1C3 by the substances described in the present invention was measured in a cell-based assay using […] as substrate for the AKR1C3 (Halim, M., Yee, D. J., and Sames, D., J. AM. CHEM. SOC. 130, 14123-14128 (2008) and Yee, D. J., Balsanek, V., Bauman, D. R., Penning, T. M., and Sames, D., Proc. Natl. Acad. Sci. USA 103, 13304-13309 (2006)) (cf. Example 20).
The cell system used were HEK293 cells (ATCC, USA) (cell culture medium: DMEM, 1.5 g glucose, 10% FCS, PSG). The cells were transfected in an AKR1C3 expression plasmid (pCMV6-AC-AKR1C3, GenBank Accession No. NM_003739.4) overnight (X-tremeGENE HP, Roche). The next morning, the cells were sown in black 96well cell culture plates at a cell density of 40000 cells/well (Greiner Bio-One, Frickenhausen, Germany). After 7 h, the cells were incubated with the test substances (dissolved in 100× concentration in DMSO, final concentration between 10^−11M and 10^−5M) and […] (dissolved in cell culture medium, final concentration 5×10^−6M) overnight. The next morning, the fluorescence of coumberol was measured at 535 nm (excitation at 355 nm) using a suitable measuring instrument (Mithras, from Berthold). The fluorescence intensity was used as a measure of the amount of coumberol formed and thus of the enzyme activity of AKR1C3. The data were normalized (transfected cells without inhibitor, only DMSO=0% inhibition; transfected cells, 10 μM inhibitor EM-1404 [F. Labrie et al. U.S. Pat. No. 6,541,463, 2003]=100% inhibition), and the IC50 values were calculated using a 4-parameter fit.
In the cell-based assay described above, the pharmacological substances claimed were examined for their inhibitory activity on the AKR1C3 enzyme (see Table 2).
As for `C[C@]12CC[C@@H]3c4ccc(OCC(=O)O)cc4CC[C@H]3[C@@H]1CC=C2c1cncc(C(F)(F)F)c1` [Example 2, ({17-[5-(Trifluoromethyl)pyridin-3-yl]estra-1,3,5(10),16-tetraen-3-yl}oxy)acetic acid], the IC50 was 0.048 µM and 0.068 µM. The same measure, in the same setting: the same measure for `C[C@]12CC[C@@H]3c4ccc(OCC(=O)O)cc4CC[C@H]3[C@@H]1CC=C2c1cncc(F)c1` [Example 3, {[17-(5-Fluoropyridin-3-yl)estra-1,3,5(10),16-tetraen-3-yl]oxy}acetic acid]: 0.049 µM and 0.056 µM and 0.031 µM; for `CC(C)(COc1ccc2c(c1)CC[C@@H]1[C@@H]2CC[C@]2(C)C(c3cncc(F)c3)=CC[C@@H]12)C(=O)O` [Example 8, 3-{[17-(5-Fluoropyridin-3-yl)estra-1,3,5(10),16-tetraen-3-yl]oxy}-2,2-dimethylpropanoic acid]: 0.17 µM and 0.22 µM.
